The text below walks through data of patent publication US20220033407A1, “N-(pyridin-2-ylsulfonyl)cyclopropanecarboxamide Derivatives and their Use in the Treatment of Disease” (NOVARTIS AG, priority 2018, published 2022).

The test concerns the target T1, delF508-CFTR-HRP (Homo sapiens, UniProt P13569, DEL508-508).
T1 construct: expressed in transfected cells
As to the kind of experiment: Measurement of delF508-CFTR-HRP surface expression in CFBE41o- cells (HRP luminescence).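 As to DelF508-CFTR-HRP Amax %: percent efficacy relative to a reference CFTR corrector compound.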 It counts as cell-based. The settings on record: for Emax: CFBE41o-, read-out: DelF508-CFTR-HRP Amax %; for EC50: mean of at least two replicates. The text has this: Measurement of delF508-CFTR-HRP Surface Expression in CFBE41o-Cells
This assay quantifies the cell surface expressions of the mutant CFTR channel using an extracellular HRP tag.
A cellular assay was developed to measure surface expression of horseradish peroxidase (HRP) tagged delF508-CFTR in the human bronchial epithelial immortalized CFBE41o-cell line (Phuan, P. W., et al, (2014) Molecular Pharmacology 86:42-51). Specifically, the HRP sequence was inserted into the fourth extracellular loop of delF508-CFTR and stably expressed in CFBE41o-cells. Cells were seeded in 384 well plate at a density of 5000 cells/well and incubated at 37° C. for 12 to 24 hours in medium (Gibco MEM #11095, 10% FBS, 10 mM HEPES, […], 200 μg/mL G418, 3 μg/mL Puromycin). The delF508-CFTR-HRP expression was induced with 500 ng/mL doxycycline (Sigma D-9891, dissolved in H2O and sterile filtered) in medium and the cells were incubated at 37° C. for 48 h. Old medium was removed and fresh medium was added containing 500 ng/mL doxycycline and unknown test compound at required test concentration in DMSO, not exceeding 0.5% final DMSO concentration. The highest concentration tested was 10 μM with a 10-point concentration response curve using a 3-fold dilution. After addition of compounds, the cells were incubated for 24 h at 37° C. On the final day, cells were washed four times in PBS containing 1 mM MgCl2 and 0.1 mM CaCl2. HRP-Substrate (SuperSignal ELISA Pico, Fisher #37069) 20 μl/well was added and the luminescence signal was determined (Viewlux, Perkin Elmer). Light was emitted upon addition of exogenous HRP-Substrate only when delF508-CFTR-HRP reached the cell surface and the HRP tag was accessible to the HRP-Substrate (note: HRP-Substrate cannot cross the lipid bilayer to reach delF508-CFTR-HRP misfolded within the cell).
The median activity for the lowest concentration of the compounds on each assay plate was calculated and this value was used to normalize the signal for each well on the respective plate. Three replicates at each concentrations for every compound were run to determine one EC50. The median value was determined and used to calculate compound activities as described below. Effective half maximal values (EC50) were calculated for each compound by performing logistic regression on measured dose-response data points using the equation: […]
where “Y” is the observed activity, “Bottom” is the lowest observed value, “Top” is the highest observed value, and the “Hill coefficient” gives the largest absolute value of the slope. The curve fitting is carried out by a curve fitting program implemented at GNF using Matlab (Mathworks). The dose response curves also were used to calculate Fold Change (FC) using the equation: […]
Compound efficacy relative to the reference compound 3-(6-(1-(2,2-difluorobenzo[d][1,3]dioxol-5-yl)cyclopropane-1-carboxamido)-3-methylpyridin-2-yl)benzoic acid was determined using the following formula: […]

Broadly, the EC50 is the concentration giving half of the maximal effect. A higher EC50 goes with weaker potency.

T1 sequence (P13569 with tags, fused parts or gaps DEL508-508): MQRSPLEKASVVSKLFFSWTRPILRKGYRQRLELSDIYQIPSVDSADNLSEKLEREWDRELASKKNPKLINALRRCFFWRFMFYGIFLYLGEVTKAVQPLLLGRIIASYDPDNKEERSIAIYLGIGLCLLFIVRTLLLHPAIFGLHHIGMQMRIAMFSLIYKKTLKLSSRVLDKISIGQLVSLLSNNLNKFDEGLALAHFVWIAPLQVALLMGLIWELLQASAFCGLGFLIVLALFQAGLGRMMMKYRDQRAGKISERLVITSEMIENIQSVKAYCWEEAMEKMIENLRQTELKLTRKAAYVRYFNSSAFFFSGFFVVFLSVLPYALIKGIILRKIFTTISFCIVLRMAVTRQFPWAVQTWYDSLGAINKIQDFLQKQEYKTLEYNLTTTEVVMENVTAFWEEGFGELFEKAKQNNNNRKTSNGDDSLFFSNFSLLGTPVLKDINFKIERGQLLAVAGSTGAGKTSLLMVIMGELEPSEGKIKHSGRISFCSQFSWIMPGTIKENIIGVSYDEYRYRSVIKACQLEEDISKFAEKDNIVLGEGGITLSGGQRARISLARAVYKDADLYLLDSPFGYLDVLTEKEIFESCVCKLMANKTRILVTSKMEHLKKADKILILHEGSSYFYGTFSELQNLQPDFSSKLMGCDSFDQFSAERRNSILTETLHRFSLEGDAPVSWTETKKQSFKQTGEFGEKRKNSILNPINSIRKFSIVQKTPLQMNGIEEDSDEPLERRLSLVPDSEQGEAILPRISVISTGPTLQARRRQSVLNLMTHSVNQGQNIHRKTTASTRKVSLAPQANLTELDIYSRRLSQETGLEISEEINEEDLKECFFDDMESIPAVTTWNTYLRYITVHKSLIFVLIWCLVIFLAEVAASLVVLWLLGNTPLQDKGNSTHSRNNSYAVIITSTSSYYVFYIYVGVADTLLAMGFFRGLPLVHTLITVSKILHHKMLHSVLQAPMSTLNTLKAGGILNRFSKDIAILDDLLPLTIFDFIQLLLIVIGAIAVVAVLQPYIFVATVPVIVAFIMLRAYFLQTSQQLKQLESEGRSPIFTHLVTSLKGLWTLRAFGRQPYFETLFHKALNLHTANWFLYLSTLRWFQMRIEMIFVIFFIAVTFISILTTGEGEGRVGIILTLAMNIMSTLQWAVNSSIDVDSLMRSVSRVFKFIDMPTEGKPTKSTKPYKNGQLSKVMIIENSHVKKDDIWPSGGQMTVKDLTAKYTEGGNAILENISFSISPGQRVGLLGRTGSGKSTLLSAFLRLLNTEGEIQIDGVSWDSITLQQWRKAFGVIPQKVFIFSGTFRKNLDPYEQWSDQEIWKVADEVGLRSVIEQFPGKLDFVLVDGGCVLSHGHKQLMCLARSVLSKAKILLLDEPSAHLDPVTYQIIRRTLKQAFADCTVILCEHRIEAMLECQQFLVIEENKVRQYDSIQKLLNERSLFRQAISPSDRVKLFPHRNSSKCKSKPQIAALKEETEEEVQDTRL

As to `CC(C)(C)C1CCN(c2ccc(Cl)cc2OC2(C(=O)NS(=O)(=O)c3cccc(N4CC[C@H](O)C4)n3)CC2)CC1` [Example 9-34, (S)-1-(2-(4-(Tert-butyl)piperidin-1-yl)-5-chlorophenoxy)-N-((6-(3-hydroxypyrrolidin-1-yl)pyridin-2-yl)sulfonyl)cyclopropanecarboxamide], the Emax turned out to be 152% and the half-maximal effective concentration (EC50) came out at 910 nM.

On to `O=C(NS(=O)(=O)c1cccc(N2CC[C@H](O)C2)n1)C1(Oc2cc(Cl)ccc2-c2ccc3occc3c2)CC1` [Example 5-12, (S)-1-(2-(Benzofuran-5-yl)-5-chlorophenoxy)-N-((6-(3-hydroxypyrrolidin-1-yl)pyridin-2-yl)sulfonyl)cyclopropane-1-carboxamide], for which the Emax amounted to 204% and a half-maximal response (EC50) required 2470 nM. Consider `O=C(NS(=O)(=O)c1cccc(N2CC[C@H](O)C2)n1)C1(Oc2cc(Cl)ccc2N2CCCC3(CCCC3)C2)CC1` [Example 9-15, (S)-1-(5-Chloro-2-(7-azaspiro[4.5]decan-7-yl)phenoxy)-N-((6-(3-hydroxypyrrolidin-1-yl)pyridin-2-yl)sulfonyl)cyclopropanecarboxamide], for which the Emax amounted to 477% and the response was half-maximal at 290 nM (EC50). On the same counts, the results for `CC(C)COc1cccc(-c2ccc(Cl)cc2OC2(C(=O)NS(=O)(=O)c3cccc(N4CCC(C)(C#N)CC4)n3)CC2)c1` [Example 5-3, 1-((4-Chloro-3′-isobutoxy-[1,1′-biphenyl]-2-yl)oxy)-N-((6-(4-cyano-4-methylpiperidin-1-yl)pyridin-2-yl)sulfonyl)cyclopropane-1-carboxamide] are 286% and 750 nM. Turning to `O=C(NS(=O)(=O)c1cccc(N2CC[C@H](O)C2)n1)C1(Oc2cc(Cl)ccc2-c2ccc3c(c2)OC(F)(F)O3)CC1` [Example 5-15, (S)-1-(5-Chloro-2-(2,2-difluorobenzo[d][1,3]dioxol-5-yl)phenoxy)-N-((6-(3-hydroxypyrrolidin-1-yl)pyridin-2-yl)sulfonyl)cyclopropane-1-carboxamide], the Emax came out at 361% and a half-maximal response (EC50) required 2540 nM.

Take `CC1(C)CCN(c2ccc(Cl)cc2OC2(C(=O)NS(=O)(=O)c3cccc(N4CCC(O)(C(F)(F)F)CC4)n3)CC2)CC1` [Example 10-9, 1-(5-chloro-2-(4,4-dimethylpiperidin-1-yl)phenoxy)-N-((6-(4-hydroxy-4-(trifluoromethyl)piperidin-1-yl)pyridin-2-yl)sulfonyl)cyclopropanecarboxamide]: the Emax was 268% and a half-maximal effect (EC50) was put at 460 nM. For the compound `O=C(NS(=O)(=O)c1cccc(N2CC[C@H](O)C2)n1)C1(Oc2cc(Cl)ccc2OC2CCCC2)CC1` [Example 6-14, (S)-1-(5-chloro-2-(cyclopentyloxy)phenoxy)-N-((6-(3-hydroxypyrrolidin-1-yl)pyridin-2-yl)sulfonyl)cyclopropanecarboxamide], the Emax is 276% and the EC50 was 3240 nM.

As for `O=C(NS(=O)(=O)c1cccc(N2CC[C@H](O)C2)n1)C1(Oc2cc(Cl)ccc2N2CCC3(CC2)CC3)CC1` [Example 9-9, (S)-1-(5-Chloro-2-(6-azaspiro[2.5]octan-6-yl)phenoxy)-N-((6-(3-hydroxypyrrolidin-1-yl)pyridin-2-yl)sulfonyl)cyclopropanecarboxamide], a half-maximal response (EC50) required 1650 nM. This lies in the single-digit micromolar range. Take `CC(C)(C)C1(O)CCN(c2cccc(S(=O)(=O)NC(=O)C3(Oc4cc(Cl)ccc4C4CC5(CCC5)C4)CC3)n2)CC1` [Example 7-4, N-((6-(4-(tert-butyl)-4-hydroxypiperidin-1-yl)pyridin-2-yl)sulfonyl)-1-(5-chloro-2-(spiro[3.3]heptan-2-yl)phenoxy)cyclopropanecarboxamide]: the Emax stood at 840% and the EC50 amounted to 440 nM. As for `O=C(NS(=O)(=O)c1cccc(N2CC[C@H](O)C2)n1)C1(Oc2cc(Cl)ccc2-c2ccc3ccoc3c2)CC1` [Example 5-4, (S)-1-(2-(Benzofuran-6-yl)-5-chlorophenoxy)-N-((6-(3-hydroxypyrrolidin-1-yl)pyridin-2-yl)sulfonyl)cyclopropane-1-carboxamide], the Emax worked out at 376% and the response was half-maximal at 2060 nM (EC50). The corresponding values for `Cc1ccc(OC2CCCC2)c(OC2(C(=O)NS(=O)(=O)c3cccc(N4CCC(C)(C#N)CC4)n3)CC2)c1` [Example 6-2, N-((6-(4-cyano-4-methylpiperidin-1-yl)pyridin-2-yl)sulfonyl)-1-(2-(cyclopentyloxy)-5-methylphenoxy)cyclopropanecarboxamide] are 289% and 2180 nM. For the compound `CC(C)(C)C1CCC(Nc2ccc(Cl)cc2OC2(C(=O)NS(=O)(=O)c3cccc(N4CC[C@H](O)C4)n3)CC2)CC1` (single isomer, unassigned) [Example 9-5-2], the “DelF508-CFTR-HRP Amax %” value is 678.4% and the midpoint of the response, the EC50, lay at 330 nM. For `CC1(C)CCCN(c2ccc(Cl)cc2OC2(C(=O)NS(=O)(=O)c3cccc(N4CC[C@H](O)C4)n3)CC2)C1` [Example 9-4, (S)-1-(5-chloro-2-(3,3-dimethylpiperidin-1-yl)phenoxy)-N-((6-(3-hydroxypyrrolidin-1-yl)pyridin-2-yl)sulfonyl)cyclopropanecarboxamide], the Emax stood at 835% and it took 750 nM to reach a half-maximal effect (EC50). As for `CC1(O)CCN(c2cccc(S(=O)(=O)NC(=O)C3(Oc4cc(Cl)ccc4N4CCC(C(C)(C)C)CC4)CC3)n2)CC1` [Example 9-35, 1-(2-(4-(Tert-butyl)piperidin-1-yl)-5-chlorophenoxy)-N-((6-(4-hydroxy-4-methylpiperidin-1-yl)pyridin-2-yl)sulfonyl)cyclopropanecarboxamide], the Emax worked out at 140% and the EC50 was determined as 340 nM. Consider `Cc1ccc(C2CCCCC2)c(OC2(C(=O)NS(=O)(=O)c3cccc(N4CCCC(N)C4)n3)CC2)c1` (stereo not drawn) [Example 2-13, N-((6-(3-Aminopiperidin-1-yl)pyridin-2-yl)sulfonyl)-1-(2-cyclohexyl-5-methylphenoxy)cyclopropanecarboxamide], for which the Emax is 119% and the concentration for a half-maximal effect (EC50) was determined as 4610 nM.

In the case of `O=C(NS(=O)(=O)c1cccc(N2CCC(O)(C(F)(F)F)CC2)n1)C1(Oc2cc(Cl)ccc2N2CC3(CCCCC3)C2)CC1` [Example 9-2, 1-(5-chloro-2-(2-azaspiro[3.5]nonan-2-yl)phenoxy)-N-((6-(4-hydroxy-4-(trifluoromethyl)piperidin-1-yl)pyridin-2-yl)sulfonyl)cyclopropanecarboxamide], the Emax is 366% and the EC50 came to 600 nM. Take `Cc1ccc(-c2cc(C(F)(F)F)ccn2)c(OC2(C(=O)NS(=O)(=O)c3cccc(N4CC[C@H](O)C4)n3)CC2)c1` [Example 5-13, (S)—N-((6-(3-Hydroxypyrrolidin-1-yl)pyridin-2-yl)sulfonyl)-1-(5-methyl-2-(4-(trifluoromethyl)pyridin-2-yl)phenoxy)cyclopropane-1-carboxamide]: the Emax was found to be 513% and the EC50 was 2080 nM.

Take `Cc1ccc(C2CC2C(F)(F)F)c(OC2(C(=O)NS(=O)(=O)c3cccc(N)n3)CC2)c1` (single isomer, unassigned) [Example 1-3-1, N-((6-aminopyridin-2-yl)sulfonyl)-1-(5-methyl-2-(2-(trifluoromethyl)cyclopropyl)phenoxy)cyclopropane-1-carboxamide]: the “DelF508-CFTR-HRP Amax %” value was found to be 65% and the EC50 stood at 4180 nM. As for `Cc1ccc(OCC(C)C)c(OC2(C(=O)NS(=O)(=O)c3cccc(N4CC[C@H](O)C4)n3)CC2)c1` [Example 6-15, (S)—N-((6-(3-hydroxypyrrolidin-1-yl)pyridin-2-yl)sulfonyl)-1-(2-isobutoxy-5-methylphenoxy)cyclopropanecarboxamide], the Emax is 215% and the EC50 was determined as 2940 nM. As to `O=C(NS(=O)(=O)c1cccc(N2CC[C@H](O)C2)n1)C1(Oc2cc(Cl)ccc2N2CCC(O)(c3ccccn3)CC2)CC1` [Example 9-37, (S)-1-(5-Chloro-2-(4-hydroxy-4-(pyridin-2-yl)piperidin-1-yl)phenoxy)-N-((6-(3-hydroxypyrrolidin-1-yl)pyridin-2-yl)sulfonyl)cyclopropanecarboxamide], the Emax is 12.6% and a half-maximal effect (EC50) was put at 80 nM.
